Several values for one entry are separate records, joined by “and”; a condition that tells them apart may be missing. Equal entries are not always repeated.
Tests used:
[1] = biological target: T1, human dopamine transporter (hDAT) (Homo sapiens, UniProt Q01959); assay: cell-based
[2] = biological target: T2, human norepinephrine transporter (hNET) (Homo sapiens, UniProt P23975); assay: biochemical; type: binding
[3] = biological target: T2, human norepinephrine transporter (hNET); assay: cell-based
[4] = biological target: T1, human dopamine transporter (hDAT); assay: biochemical; type: binding
[5] = tested on: male Swiss-Webster mice; assay: animal or person; type: in vivo
[6] = tested on: male Swiss-Webster mice; assay: Cocaine interaction study (locomotor activity); type: in vivo; settings: 20 mg/kg cocaine IP

T2 sequence (P23975 whole entry): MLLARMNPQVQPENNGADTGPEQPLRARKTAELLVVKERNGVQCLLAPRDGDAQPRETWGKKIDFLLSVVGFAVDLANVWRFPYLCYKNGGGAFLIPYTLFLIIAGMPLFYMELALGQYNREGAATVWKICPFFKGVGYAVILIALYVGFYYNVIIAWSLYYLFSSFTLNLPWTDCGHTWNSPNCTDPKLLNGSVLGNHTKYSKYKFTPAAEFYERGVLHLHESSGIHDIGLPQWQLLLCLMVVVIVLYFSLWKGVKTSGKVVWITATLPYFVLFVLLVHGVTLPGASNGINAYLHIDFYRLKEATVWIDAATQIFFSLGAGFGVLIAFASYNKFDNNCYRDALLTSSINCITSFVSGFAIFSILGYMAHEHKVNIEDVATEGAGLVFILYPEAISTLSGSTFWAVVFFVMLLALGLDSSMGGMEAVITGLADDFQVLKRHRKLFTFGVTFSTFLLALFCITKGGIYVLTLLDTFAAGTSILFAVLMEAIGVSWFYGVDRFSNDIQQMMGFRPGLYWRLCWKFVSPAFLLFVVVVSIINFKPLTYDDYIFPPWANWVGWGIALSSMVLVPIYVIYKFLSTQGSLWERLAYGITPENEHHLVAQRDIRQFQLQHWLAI
T1 sequence (Q01959 whole entry): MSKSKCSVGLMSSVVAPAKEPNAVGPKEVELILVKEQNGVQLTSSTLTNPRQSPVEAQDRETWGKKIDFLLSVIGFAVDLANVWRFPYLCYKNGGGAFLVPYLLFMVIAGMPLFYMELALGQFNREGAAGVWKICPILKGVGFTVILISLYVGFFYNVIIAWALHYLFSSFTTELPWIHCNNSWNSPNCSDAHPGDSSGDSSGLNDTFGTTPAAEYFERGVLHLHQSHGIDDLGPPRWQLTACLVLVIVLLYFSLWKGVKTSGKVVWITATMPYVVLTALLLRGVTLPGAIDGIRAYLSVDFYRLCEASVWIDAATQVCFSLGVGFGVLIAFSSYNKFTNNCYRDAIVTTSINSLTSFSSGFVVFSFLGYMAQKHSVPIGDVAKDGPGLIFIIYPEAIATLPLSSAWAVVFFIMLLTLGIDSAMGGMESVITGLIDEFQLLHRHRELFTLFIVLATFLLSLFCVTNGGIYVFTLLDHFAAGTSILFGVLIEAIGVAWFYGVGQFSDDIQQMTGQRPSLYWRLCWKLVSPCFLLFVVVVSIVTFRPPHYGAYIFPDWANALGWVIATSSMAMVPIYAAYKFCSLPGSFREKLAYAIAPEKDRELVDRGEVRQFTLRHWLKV

Structure (SMILES): OC1(c2ccc(Br)cc2)CCN(CCCCOC(c2ccc(F)cc2)c2ccc(F)cc2)CC1 [Compound 31530]
- Discrimination ratio uptake/binding (DA) [1]: 110.5
- IC50 ([1]; HEK-hDAT cells, read-out: [3H]Dopamine Uptake IC50): 431 nM
- Ki ([1]; Table 2, read-out: Reuptake [3H]DA (Ki ± SD)): 431 ± 88 nM
- Hill coefficient [2]: −0.97 ± 0.30
- IC50 ([3]; HEK-hNET cells, read-out: [3H]NE Uptake IC50): 1870 nM
- Ki ([3]; Table 2, read-out: Reuptake [3H]NE (Ki ± SD)): 1870 ± 670 nM
- Binding discrimination ratio NET/DAT [4]: 64.1
- Binding discrimination ratio SERT/DAT [4]: 9.7
- Hill coefficient [4]: −0.59 ± 0.06
- Ki ([4]; [125I]RTI-55 binding Ki, DAT): 3.9 nM and 10 nM
- ED50 ([5]; Mus musculus, ip, read-out: ED50 (dose producing ½ maximal stimulant activity)): 2.42 mg/kg
- Maximal effect/cocaine maximal effect ratio (ME/CME) ([5]; mouse, in vivo): 0.38
- Maximum effect, horizontal activity ([5]; mouse, in vivo): 2132.6 counts/10 min
- Dose at estimated maximum effect ([5]; mouse, in vivo, ip): 6.00 mg/kg
- AD50 (dose attenuating cocaine-induced stimulation by 50%) ([6]; IP, 30-min period): 15.75 mg/kg
- Doses with significant differences against the cocaine group (p<0.05) ([6]; planned comparisons on log10 horizontal activity counts): 30 mg/kg
